Experimental data reported in patent US5840684A, “Glycopeptide antibiotic derivatives” (Eli Lilly and Company, priority 1995, dated 1998).
Values after ≈ are worked out from the molar mass of the structure shown.

Columns and labels:
[1] = test system: Staphylococcus aureus S13E; format: cell-based
Method: (§1) The MIC's were determined using a standard broth micro-dilution assay.

[2] = test system: Entercoccus faecium 180-1; test: broth micro-dilution MIC; format: cell-based
Method: as §1

Entercoccus faecium 276 = test: broth micro-dilution MIC; format: cell-based
Method: as §1

[3] = test system: Staphylococcus aureus 446; test: broth micro-dilution MIC; format: cell-based
Method: as §1

[4] = test system: Staphylococcus aureus 447; test: broth micro-dilution MIC; format: cell-based
Method: as §1

[5] = test system: Staphylococcus aureus 489; test: broth micro-dilution MIC; format: cell-based
Method: as §1

[6] = test system: Staphylococcus aureus 491; test: broth micro-dilution MIC; format: cell-based
Method: as §1

[7] = test system: Staphylococcus aureus SA1199A; test: broth micro-dilution MIC; format: cell-based
Method: as §1

[8] = test system: Staphylococcus aureus SA1199; test: broth micro-dilution MIC; format: cell-based
Method: as §1

[9] = test system: Staphylococcus aureus X400; test: broth micro-dilution MIC; format: cell-based
Method: as §1

[10] = test system: Staphylococcus aureus X778; test: broth micro-dilution MIC; format: cell-based
Method: as §1

[11] = test system: Streptococcus pyogenes C203; test: broth micro-dilution MIC; format: cell-based
Method: as §1

Entercoccus faecium 180 = test: broth micro-dilution MIC; format: cell-based; conditions: Entercoccus faecium 180
Method: (§2) The formula I compounds have in vitro and in vivo activity against Gram-positive pathogenic bacteria. The MIC's were determined using a standard broth micro-dilution assay.

Entercoccus faecium 2041 = test: broth micro-dilution MIC; format: cell-based; conditions: Entercoccus faecium 2041
Method: as §2

[12] = test system: Enterococcus gallinarum 245; test: broth micro-dilution MIC; format: cell-based; conditions: Enterococcus gallinarum 245
Method: as §2

[13] = test system: Staphylococcus haemolyticus 105; test: broth micro-dilution MIC; format: cell-based
Method: as §2

[14] = test system: Staphylococcus haemolyticus 415; test: broth micro-dilution MIC; format: cell-based
Method: as §2

[15] = test system: Streptococcus pneumoniae P1; test: broth micro-dilution MIC; format: cell-based
Method: as §2

Stapylococcus aureus = test: mouse protection, experimentally-induced infection; format: in vivo; conditions: mice infected with Stapylococcus aureus, two doses
Streptococcus pyogenes = test: mouse protection, experimentally-induced infection; format: in vivo; conditions: mice infected with Streptococcus pyogenes, two doses
Streptococcus pneumoniae = test: mouse protection, experimentally-induced infection; format: in vivo; conditions: mice infected with Streptococcus pneumoniae, two doses
[16] = test system: vancomycin-resistant enterococci; test: broth micro-dilution, mean geometric MIC; format: cell-based, Enterococcus faecium and Enterococcus faecalis; conditions: enterococci, 24-hour incubation
[17] = test system: vancomycin-susceptible enterococci; test: broth micro-dilution, mean geometric MIC; format: cell-based, Enterococcus faecium and Enterococcus faecalis; conditions: enterococci, 24-hour incubation
Pediococcus acidilacti = test: agar dilution MIC, lactic acid bacteria; format: cell-based; conditions: Pediococcus acidilacti (mean of 10), brain-heart infusion agar
Pediococcus pentosaceus = test: agar dilution MIC, lactic acid bacteria; format: cell-based; conditions: Pediococcus pentosaceus (mean of 2), brain-heart infusion agar
Leuconostoc lactis = test: agar dilution MIC, lactic acid bacteria; format: cell-based; conditions: Leuconostoc lactis (mean of 2), brain-heart infusion agar
[18] = test system: Leuconostoc pseudomesenteroides; test: agar dilution MIC, lactic acid bacteria; format: cell-based; conditions: brain-heart infusion agar
Leuconostoc citreum = test: agar dilution MIC, lactic acid bacteria; format: cell-based; conditions: brain-heart infusion agar
[19] = test system: Staphylococcus aureus SA1199B; format: cell-based
Method: as §1

[20] = test system: Leuconostoc mesenteroides; test: agar dilution MIC, lactic acid bacteria; format: cell-based; conditions: Leuconostoc mesenteroides (mean of 4), brain-heart infusion agar
Lactobacillus confusus = test: agar dilution MIC, lactic acid bacteria; format: cell-based; conditions: Lactobacillus confusus, brain-heart infusion agar
[21] = test system: Staphylococcus epidermidis 270; test: broth micro-dilution MIC; format: cell-based
Method: as §2

CNC(CC(C)C)C(=O)NC1C(=O)NC(CC(N)=O)C(=O)NC2C(=O)NC3C(=O)NC(C(=O)NC(C(=O)O)c4cc(O)cc(O)c4-c4cc3ccc4O)C(OC3CC(C)(N)C(O)C(C)O3)c3ccc(c(Cl)c3)Oc3cc2cc(c3OC2OC(CO)C(O)C(O)C2OC2CC(C)(NCc3ccc4ccccc4c3)C(O)C(C)O2)Oc2ccc(cc2Cl)C1O (stereo not drawn) [Compound 1]
MIC [1]: 0.125 µg/mL (≈ 0.0721 µM)
MIC [2]: ≤ 0.06 µg/mL
MIC (Entercoccus faecium 276): ≤ 0.06 µg/mL
MIC [3]: ≤ 0.06 µg/mL
MIC [4]: ≤ 0.06 µg/mL
MIC [5]: ≤ 0.06 µg/mL
MIC [6]: 2 µg/mL (≈ 1.15 µM)
MIC [7]: ≤ 0.06 µg/mL
MIC [8]: ≤ 0.06 µg/mL
MIC [9]: ≤ 0.06 µg/mL
MIC [10]: 0.125 µg/mL (≈ 0.0721 µM)
MIC [11]: ≤ 0.06 µg/mL
MIC (Entercoccus faecium 180): 0.5 µg/mL (≈ 0.289 µM)
MIC (Entercoccus faecium 2041): 0.125 µg/mL (≈ 0.0721 µM)
MIC [12]: 4 µg/mL (≈ 2.31 µM)
MIC [13]: 4 µg/mL (≈ 2.31 µM)
MIC [14]: 4 µg/mL (≈ 2.31 µM)
MIC [15]: ≤ 0.06 µg/mL
ED50 (Stapylococcus aureus): 0.086 mg/kg/2
ED50 (Streptococcus pyogenes): 0.052 mg/kg/2
ED50 (Streptococcus pneumoniae): 0.025 mg/kg/2
mean geometric MIC, Vancomycin Resistant Strains [16]: 0.25 µg/mL
mean geometric MIC, Vancomycin Sensitive Strains [17]: 0.0061 µg/mL
MIC (Pediococcus acidilacti): 18 µg/mL (≈ 10.4 µM)
MIC (Pediococcus pentosaceus): 23 µg/mL (≈ 13.3 µM)
MIC (Leuconostoc lactis): 23 µg/mL (≈ 13.3 µM)
MIC [18]: > 128 µg/mL
MIC (Leuconostoc citreum): > 128 µg/mL

CNC(CC(C)C)C(=O)NC1C(=O)NC(CC(N)=O)C(=O)NC2C(=O)NC3C(=O)NC(C(=O)NC(C(=O)O)c4cc(O)cc(O)c4-c4cc3ccc4O)C(OC3CC(C)(N)C(O)C(C)O3)c3ccc(c(Cl)c3)Oc3cc2cc(c3OC2OC(CO)C(O)C(O)C2OC2CC(C)(NCc3cccc4c3oc3ccccc34)C(O)C(C)O2)Oc2ccc(cc2Cl)C1O (stereo not drawn) [Compound 39]
MIC [1]: ≤ 0.06 µg/mL
MIC [19]: ≤ 0.06 µg/mL
MIC [2]: ≤ 0.06 µg/mL
MIC (Entercoccus faecium 276): ≤ 0.06 µg/mL
MIC [8]: ≤ 0.06 µg/mL
MIC [9]: ≤ 0.06 µg/mL
MIC [10]: ≤ 0.06 µg/mL
MIC [11]: ≤ 0.06 µg/mL
MIC (Entercoccus faecium 180): 0.5 µg/mL (≈ 0.282 µM)
MIC (Entercoccus faecium 2041): ≤ 0.06 µg/mL
MIC [12]: ≤ 0.06 µg/mL
MIC [13]: 2 µg/mL (≈ 1.13 µM)
MIC [14]: 4 µg/mL (≈ 2.26 µM)
MIC [15]: ≤ 0.06 µg/mL
ED50 (Stapylococcus aureus): 0.1 mg/kg/2
ED50 (Streptococcus pyogenes): 0.045 mg/kg/2
ED50 (Streptococcus pneumoniae): < 0.031 mg/kg/2
mean geometric MIC, Vancomycin Resistant Strains [16]: 1.2 µg/mL
mean geometric MIC, Vancomycin Sensitive Strains [17]: 0.09 µg/mL
MIC (Pediococcus acidilacti): 26 µg/mL (≈ 14.7 µM)
MIC (Pediococcus pentosaceus): 32 µg/mL (≈ 18.1 µM)
MIC (Leuconostoc lactis): 32 µg/mL (≈ 18.1 µM)
MIC [20]: 32 µg/mL (≈ 18.1 µM)
MIC (Lactobacillus confusus): 32 µg/mL (≈ 18.1 µM)

CNC(CC(C)C)C(=O)NC1C(=O)NC(CC(N)=O)C(=O)NC2C(=O)NC3C(=O)NC(C(=O)NC(C(=O)O)c4cc(O)cc(O)c4-c4cc3ccc4O)C(OC3CC(C)(N)C(O)C(C)O3)c3ccc(c(Cl)c3)Oc3cc2cc(c3OC2OC(CO)C(O)C(O)C2OC2CC(C)(NCc3cccc4c3OCO4)C(O)C(C)O2)Oc2ccc(cc2Cl)C1O (stereo not drawn) [Compound 58]
MIC [1]: ≤ 0.06 µg/mL
MIC (Entercoccus faecium 276): 0.5 µg/mL (≈ 0.29 µM)
MIC [4]: 1 µg/mL (≈ 0.579 µM)
MIC [5]: ≤ 0.06 µg/mL
MIC [7]: ≤ 0.06 µg/mL
MIC [8]: ≤ 0.06 µg/mL
MIC [9]: ≤ 0.06 µg/mL
MIC [10]: ≤ 0.06 µg/mL
MIC [11]: ≤ 0.06 µg/mL
MIC (Entercoccus faecium 180): 8 µg/mL (≈ 4.63 µM)
MIC (Entercoccus faecium 2041): 0.5 µg/mL (≈ 0.29 µM)
MIC [12]: 0.4 µg/mL (≈ 0.232 µM)
MIC [21]: 4 µg/mL (≈ 2.32 µM)
MIC [13]: 4 µg/mL (≈ 2.32 µM)
MIC [14]: 8 µg/mL (≈ 4.63 µM)
MIC [15]: ≤ 0.06 µg/mL
mean geometric MIC, Vancomycin Resistant Strains [16]: 5.7 µg/mL
mean geometric MIC, Vancomycin Sensitive Strains [17]: 0.76 µg/mL
MIC (Pediococcus acidilacti): 55 µg/mL (≈ 31.9 µM)
MIC [18]: 128 µg/mL (≈ 74.1 µM)
MIC (Leuconostoc citreum): 128 µg/mL (≈ 74.1 µM)

CNC(CC(C)C)C(=O)NC1C(=O)NC(CC(N)=O)C(=O)NC2C(=O)NC3C(=O)NC(C(=O)NC(C(=O)O)c4cc(O)cc(O)c4-c4cc3ccc4O)C(OC3CC(C)(N)C(O)C(C)O3)c3ccc(c(Cl)c3)Oc3cc2cc(c3OC2OC(CO)C(O)C(O)C2OC2CC(C)(NCc3cc(OCc4ccccc4)ccc3OC)C(O)C(C)O2)Oc2ccc(cc2Cl)C1O (stereo not drawn) [Compound 51]
MIC [1]: 0.5 µg/mL (≈ 0.275 µM)
MIC [19]: 1 µg/mL (≈ 0.55 µM)
MIC [2]: ≤ 0.06 µg/mL
MIC (Entercoccus faecium 276): ≤ 0.06 µg/mL
MIC [4]: 0.5 µg/mL (≈ 0.275 µM)
MIC [5]: ≤ 0.06 µg/mL
MIC [7]: ≤ 0.06 µg/mL
MIC [8]: 0.5 µg/mL (≈ 0.275 µM)
MIC [9]: ≤ 0.06 µg/mL
MIC [10]: 0.5 µg/mL (≈ 0.275 µM)
MIC (Entercoccus faecium 180): 0.5 µg/mL (≈ 0.275 µM)
MIC (Entercoccus faecium 2041): ≤ 0.06 µg/mL
MIC [21]: 0.5 µg/mL (≈ 0.275 µM)
MIC [13]: 0.5 µg/mL (≈ 0.275 µM)
MIC [14]: 1 µg/mL (≈ 0.55 µM)
MIC [15]: ≤ 0.06 µg/mL
ED50 (Stapylococcus aureus): 0.16 mg/kg/2
ED50 (Streptococcus pyogenes): 0.057 mg/kg/2
ED50 (Streptococcus pneumoniae): 0.036 mg/kg/2
mean geometric MIC, Vancomycin Resistant Strains [16]: 0.84 µg/mL
mean geometric MIC, Vancomycin Sensitive Strains [17]: 0.22 µg/mL
MIC (Pediococcus acidilacti): 87 µg/mL (≈ 47.8 µM)
MIC (Pediococcus pentosaceus): 91 µg/mL (≈ 50 µM)
MIC [20]: 76 µg/mL (≈ 41.8 µM)
MIC [18]: > 128 µg/mL
MIC (Leuconostoc citreum): > 128 µg/mL

CNC(CC(C)C)C(=O)NC1C(=O)NC(CC(N)=O)C(=O)NC2C(=O)NC3C(=O)NC(C(=O)NC(C(=O)O)c4cc(O)cc(O)c4-c4cc3ccc4O)C(OC3CC(C)(N)C(O)C(C)O3)c3ccc(c(Cl)c3)Oc3cc2cc(c3OC2OC(CO)C(O)C(O)C2OC2CC(C)(NCc3ccc(OCc4ccccc4)c(OC)c3)C(O)C(C)O2)Oc2ccc(cc2Cl)C1O (stereo not drawn) [Compound 52]
MIC [1]: 0.5 µg/mL (≈ 0.275 µM)
MIC [19]: 2 µg/mL (≈ 1.1 µM)
MIC [2]: ≤ 0.06 µg/mL
MIC (Entercoccus faecium 276): 0.125 µg/mL (≈ 0.0687 µM)
MIC [3]: ≤ 0.06 µg/mL
MIC [4]: ≤ 0.06 µg/mL
MIC [5]: 0.5 µg/mL (≈ 0.275 µM)
MIC [7]: ≤ 0.06 µg/mL
MIC [8]: 2 µg/mL (≈ 1.1 µM)
MIC [9]: ≤ 0.06 µg/mL
MIC [10]: 0.5 µg/mL (≈ 0.275 µM)
MIC [11]: ≤ 0.06 µg/mL
MIC (Entercoccus faecium 180): 2 µg/mL (≈ 1.1 µM)
MIC (Entercoccus faecium 2041): 0.5 µg/mL (≈ 0.275 µM)
MIC [12]: 1 µg/mL (≈ 0.55 µM)
MIC [21]: 0.5 µg/mL (≈ 0.275 µM)
MIC [13]: 0.5 µg/mL (≈ 0.275 µM)
MIC [14]: 1 µg/mL (≈ 0.55 µM)
MIC [15]: ≤ 0.06 µg/mL
ED50 (Stapylococcus aureus): 0.052 mg/kg/2
ED50 (Streptococcus pyogenes): 0.046 mg/kg/2
ED50 (Streptococcus pneumoniae): 0.074 mg/kg/2
mean geometric MIC, Vancomycin Resistant Strains [16]: 0.59 µg/mL
mean geometric MIC, Vancomycin Sensitive Strains [17]: 0.11 µg/mL
MIC (Pediococcus acidilacti): 55 µg/mL (≈ 30.2 µM)
MIC [20]: 76 µg/mL (≈ 41.8 µM)
MIC (Leuconostoc citreum): > 128 µg/mL
